Data taken from article PMC7918497, “Proposed Mechanism for the Antitrypanosomal Activity of Quercetin and Myricetin Isolated from Hypericum afrum Lam.: Phytochemistry, In Vitro Testing and Modeling Studies” (Molecules, 2021).
Where two headings read alike, the source gives them in different places.

Tests used:
[1] = tested on: L. donovani axenic amastigotes; experiment: In vitro antileishmanial assay, L. donovani axenic amastigotes (Alamar Blue); format: cell-based, Leishmania donovani
Method: (§1) IC50 and IC90 values were computed from the dose–response curves using XLfit software. DFMO (difluoromethylornithine) was used as the positive control. The antiprotozoal activities of the H. afrum fractions and isolated compounds were evaluated in vitro against L. donovani promastigotes, axenic amastigotes and intracellular amastigotes in THP1 cells. The fractions and some isolated compounds were also evaluated against T. brucei trypomastigote forms.

[2] = tested on: L. donovani promastigotes; experiment: In vitro antileishmanial assay, L. donovani promastigotes (Alamar Blue); format: cell-based, Leishmania donovani; conditions: for IC50: read-out: L. Donovani Promastigote IC50; for IC90: read-out: L. Donovani Promastigote IC90
Method: as §1

[3] = tested on: L. donovani intracellular amastigotes in THP1 cells; experiment: In vitro antileishmanial assay, intracellular amastigotes in THP1 cells (parasite rescue and transformation assay); format: cell-based, Leishmania donovani
Method: as §1

[4] = tested on: Trypanosoma brucei trypomastigotes; experiment: In vitro antitrypanosomal assay, T. brucei trypomastigotes (Alamar Blue); format: cell-based
Method: as §1

[5] = General cytotoxicity against THP1 cells; format: cell-based, human; conditions: human, THP1 cells
TbHK1 = tested on: TbHK1; parameters: method as in PMID 20971104; conditions: read-out: TbHK1 inhibition IC50; cited from earlier work
THP1 cells = experiment: General cytotoxicity against THP1 cells; format: cell-based, human; conditions: Table 1
[6] = Leishmania donovani, Table 1, read-out: L. Donovani Amastigote IC50
[7] = Leishmania donovani, Table 1, read-out: L. Donovani Amastigote IC90
[8] = Leishmania donovani, isolated compounds, Table 1, tested range 0.4–10 ug/mL
[9] = Leishmania donovani, THP-1, Table 1, read-out: L. Donovani Amastigote/THP1 IC50
[10] = Leishmania donovani, THP-1, Table 1, read-out: L. Donovani Amastigote/THP1 IC90
[11] = Trypanosoma brucei, isolated compounds
[12] = Leishmania donovani, Table 2, read-out: L. Donovani Amastigote IC50
[13] = Leishmania donovani, Table 2, read-out: L. Donovani Amastigote IC90
[14] = Leishmania donovani, fractions, Table 2
[15] = Leishmania donovani, THP-1, Table 2, read-out: L. Donovani Amastigote/THP IC50
[16] = Leishmania donovani, THP-1, Table 2, read-out: L. Donovani Amastigote/THP IC90
[17] = isolated compounds, Table 1, tested range 0.4–10 ug/mL

| IC90 [1, 7] | IC50 [3, 9] | IC90 [3, 10] | IC50 [4, 11] | IC90 [4, 11] | Compound | IC50 [1, 6] | IC50 [2, 8] | IC90 [2, 8] | IC50 ([5]; Table 1) | IC90 ([5]; Table 1) | further results |
| --- | --- | --- | --- | --- | --- | --- | --- | --- | --- | --- | --- |
| > 10 µM | > 10 µM | > 10 µM | > 10 µM | > 10 µM | O=c1c(O)c(-c2cc(O)c(O)c(OC3OC(CO)C(O)C(O)C3O)c2)oc2cc(O)cc(O)c12 [Compound 7, myricetin-3’-O-β-D-glucopyranoside] | > 10 µM | > 10 µM | > 10 µM | > 10 µM | > 10 µM |  |
| > 10 µM |  |  | 0.001 µM | 0.002 µM | N=C(N)c1ccc(OCCCCCOc2ccc(C(=N)N)cc2)cc1 [PENT, Pentamidine, reference compound] |  |  |  | > 10 µM | > 10 µM | IC50 [1, 12]: 9.58 µg/mL; IC90 [1, 13]: > 10 µg/mL; IC50 [2, 14]: 1.48 µg/mL; IC90 [2, 14]: 2.38 µg/mL; IC50 [3, 15]: 1.16 µg/mL; IC90 [3, 16]: 5.59 µg/mL; IC50 ([4]; Trypanosoma brucei, fractions): 0.001 µg/mL; IC90 ([4]; Trypanosoma brucei, fractions): 0.002 µg/mL; IC50 ([5]; Table 2): > 10 µg/mL; IC90 ([5]; Table 2): > 10 µg/mL |
| > 10 µM | > 10 µM | > 10 µM | > 10 µM | > 10 µM | O=c1c(OC2OC(CO)C(O)C(O)C2O)c(-c2cc(O)c(O)c(O)c2)oc2cc(O)cc(O)c12 [Compound 6, myricetin-3-O-β-D-galactopyranoside] | > 10 µM | > 10 µM | > 10 µM | > 10 µM | > 10 µM |  |
|  |  |  |  |  | C[C@@H]1[C@H](O)[C@@H](C)/C=C/C=C/C=C/C=C/C=C/C=C/C=C/[C@H](O[C@@H]2O[C@H](C)[C@@H](O)[C@H](N)[C@@H]2O)C[C@@H]2O[C@](O)(C[C@@H](O)C[C@@H](O)[C@H](O)CC[C@@H](O)C[C@@H](O)CC(=O)O[C@H]1C)C[C@H](O)[C@H]2C(=O)O [AMB, Amphotericin, reference compound] |  |  |  | > 2 µM | > 2 µM | IC50 [1, 12]: 0.304 µg/mL; IC90 [1, 13]: 0.362 µg/mL; IC50 [2, 14]: 0.138 µg/mL; IC90 [2, 14]: 0.188 µg/mL; IC50 [3, 15]: 0.187 µg/mL; IC90 [3, 16]: 0.264 µg/mL; IC50 ([5]; Table 2): > 2 µg/mL; IC90 ([5]; Table 2): > 2 µg/mL |
|  |  |  |  |  | myricitrin [Compound 2] |  |  |  |  |  | IC50 ([1]; Table 1, read-out: L. Donovani Amastigote IC50): > 10 µM; IC90 ([1]; Table 1, read-out: L. Donovani Amastigote IC90): > 10 µM; IC50 [2, 17]: > 10 µM; IC90 [2, 17]: > 10 µM; IC50 ([3]; Table 1, read-out: L. Donovani Amastigote/THP1 IC50): > 10 µM; IC90 ([3]; Table 1, read-out: L. Donovani Amastigote/THP1 IC90): > 10 µM; IC50 ([4]; isolated compounds): > 10 µM; IC90 ([4]; isolated compounds): > 10 µM; IC50 (THP1 cells): > 10 µM; IC90 (THP1 cells): > 10 µM |
|  |  |  |  |  | NCCC[C@](N)(C(=O)O)C(F)F [DFMO, α-difluoromethylornithine, reference compound] |  |  |  |  |  | T. Brucei IC50 ([4]; fractions): 3.634 µg/mL; T. Brucei IC90 ([4]; fractions): 8.804 µg/mL; IC50 ([4]; isolated compounds): 3.63 µM; IC90 ([4]; isolated compounds): 8.8 µM |
| > 10 µM | > 10 µM | > 10 µM | > 10 µM | > 10 µM | O=c1c(-c2c(O)cc(O)c3c(=O)cc(-c4ccc(O)cc4)oc23)c(-c2ccc(O)cc2)oc2cc(O)cc(O)c12 [Compound 3, biapigenin] | > 10 µM | > 10 µM | > 10 µM | > 10 µM | > 10 µM |  |

| Compound | IC90 [1, 7] | IC50 [3, 9] | IC90 [3, 10] | IC50 [4, 11] | IC90 [4, 11] | IC50 [1, 6] | IC50 [2, 8] | IC90 [2, 8] | IC50 ([5]; Table 1) | IC90 ([5]; Table 1) | further results |
| --- | --- | --- | --- | --- | --- | --- | --- | --- | --- | --- | --- |
| O=c1c(O)c(-c2ccc(O)c(O)c2)oc2cc(O)cc(O)c12 [Compound 1, quercetin] | > 10 µM | > 10 µM | > 10 µM | 7.52 µM | 9.76 µM | > 10 µM | > 10 µM | > 10 µM | > 10 µM | > 10 µM | IC50 (TbHK1): 4.1 µM |
| O=c1c(O)c(-c2cc(O)c(O)c(O)c2)oc2cc(O)cc(O)c12 [Compound 4, myricetin] | > 10 µM | > 10 µM | > 10 µM | 5.71 µM | 7.97 µM | > 10 µM | > 10 µM | > 10 µM | > 10 µM | > 10 µM | IC50 (TbHK1): 48.9 µM |
| O=c1c(O[C@@H]2O[C@H](CO)[C@H](O)[C@H](O)[C@H]2O)c(-c2ccc(O)c(O)c2)oc2cc(O)cc(O)c12 [Compound 5, hyperoside] | > 10 µM | > 10 µM | > 10 µM | > 10 µM | > 10 µM | > 10 µM | > 10 µM | > 10 µM | > 10 µM | > 10 µM |  |
